# In the supplement of paper PMC10307832:
# How the values were obtained:
# Assay in all cases: relative viability (nuclei count vs DMSO), 5 days (fraction); higher = more cells survive
# Tosedostat + Bortezomib = compound: CC(C)C[C@@H](C(=O)N[C@H](C(=O)OC1CCCC1)c1ccccc1)[C@H](O)C(=O)NO [Tosedostat] + CC(C)C[C@H](NC(=O)[C@H](Cc1ccccc1)NC(=O)c1cnccn1)B(O)O [Bortezomib] (partner 0.002 µM)
# Method in brief: (§1)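 Nuclei were stained with Hoechst during a one-step fixation (final 0.05% Triton X-100, 1% formaldehyde, 1 ug/ml Hoechst) carried out 5 days after dosing, then counted on 4× images. The cells, lung cancer lines in 1536-well plates, had been dosed by pin tool the day after seeding with one drug alone or a fixed anchor-drug dose plus five library-drug doses (not always all listed) in √10 steps. Relative viability is the nuclei count in treated wells divided by that in vehicle wells, and each value is the median of duplicate plates.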
# Tosedostat + Linsitinib = compound: CC(C)C[C@@H](C(=O)N[C@H](C(=O)OC1CCCC1)c1ccccc1)[C@H](O)C(=O)NO [Tosedostat] + C[C@]1(O)C[C@@H](c2nc(-c3ccc4ccc(-c5ccccc5)nc4c3)c3c(N)nccn32)C1 [Linsitinib] (partner 1 µM)
# Method in brief: as §1
# Tosedostat + Navitoclax = compound: CC(C)C[C@@H](C(=O)N[C@H](C(=O)OC1CCCC1)c1ccccc1)[C@H](O)C(=O)NO [Tosedostat] + CC1(C)CCC(c2ccc(Cl)cc2)=C(CN2CCN(c3ccc(C(=O)NS(=O)(=O)c4ccc(N[C@H](CCN5CCOCC5)CSc5ccccc5)c(S(=O)(=O)C(F)(F)F)c4)cc3)CC2)C1 [Navitoclax] (partner 0.5 µM)
# Method in brief: as §1
# [1] = compound: CC1=NN=C(O1)C2=NN=C(C=C2)N3CCC(CC3)OC4=C(C=CC(=C4)F)Cl + Cc1nc(NC(=O)N2CCC[C@H]2C(N)=O)sc1-c1ccnc(C(C)(C)C(F)(F)F)c1 [Alpelisib] (partner 2 µM)
# Method in brief: as §1
cell line,measurement,setting,value
UMC-11,relative viability,Tosedostat + Bortezomib; first compound 0.02 µM,0.689
same,relative viability,Tosedostat + Bortezomib; first compound 0.06325 µM,0.523
same,relative viability,Tosedostat + Bortezomib; first compound 0.2 µM,0.752
same,relative viability,Tosedostat + Bortezomib; first compound 0.6325 µM,0.663
same,relative viability,Tosedostat + Bortezomib; first compound 2 µM,0.81
same,relative viability,Tosedostat + Linsitinib; first compound 0.02 µM,0.995
same,relative viability,Tosedostat + Linsitinib; first compound 0.06325 µM,1.08
same,relative viability,Tosedostat + Linsitinib; first compound 0.2 µM,0.951
same,relative viability,Tosedostat + Linsitinib; first compound 0.6325 µM,0.898
same,relative viability,Tosedostat + Linsitinib; first compound 2 µM,0.976
same,relative viability,Tosedostat + Navitoclax; first compound 0.02 µM,0.343
same,relative viability,Tosedostat + Navitoclax; first compound 0.06325 µM,0.309
same,relative viability,Tosedostat + Navitoclax; first compound 0.2 µM,0.323
same,relative viability,Tosedostat + Navitoclax; first compound 0.6325 µM,0.322
same,relative viability,Tosedostat + Navitoclax; first compound 2 µM,0.287
same,relative viability,[1]; first compound 0.253 µM,0.744
same,relative viability,[1]; first compound 0.8 µM,0.679
same,relative viability,[1]; first compound 2.53 µM,0.687
same,relative viability,[1]; first compound 8 µM,0.667
